According to PubChem BioAssay (NCI):
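Method: 48-hour compound exposure of cells in 96-well plates, five concentrations, linear interpolation of endpoints. Definition used: TGI = concentration required for complete inhibition of growth.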

What was measured:
Assay in all cases: NCI anticancer screen, dose series, 48 h
[1] = test system: LOX IMVI melanoma
[2] = test system: NCI-H226 lung
[3] = test system: HT29 colon
[4] = test system: SK-MEL-28 melanoma
[5] = test system: SK-MEL-5 melanoma
[6] = test system: OVCAR-4 ovarian
[7] = test system: A549 NSCLC
[8] = test system: UACC-257 melanoma
[9] = test system: DU-145 prostate
[10] = test system: MDA-MB-435
[11] = test system: IGROV1 ovarian
[12] = test system: MDA-MB-231 breast
[13] = test system: HOP-92 NSCLC
[14] = test system: RXF 393 renal
[15] = test system: CAKI-1 renal
[16] = test system: TK-10 renal
[17] = test system: HCT-116 colon
[18] = test system: T-47D breast
[19] = test system: KM12 colon
[20] = test system: SF-268 CNS
[21] = test system: NCI-H23 lung
[22] = test system: HS 578T breast
[23] = test system: UO-31 renal
[24] = test system: SW-620 colon
[25] = test system: ACHN renal
[26] = test system: M14 melanoma
[27] = test system: SR leukemia
[28] = test system: MDA-N
[29] = test system: MOLT-4 leukemia
[30] = test system: SK-MEL-2 melanoma
[31] = test system: MALME-3M melanoma
[32] = test system: SK-OV-3 ovarian
[33] = test system: UACC-62 melanoma
[34] = test system: NCI-H522 lung
[35] = test system: NCI-H460 lung
[36] = test system: COLO 205 colon
[37] = test system: HCT-15 colon
[38] = test system: OVCAR-8 ovarian
[39] = test system: SF-539 CNS
[40] = test system: NCI/ADR-RES ovarian
[41] = test system: SN12C renal
[42] = test system: SNB-75 CNS
[43] = test system: SF-295 CNS
[44] = test system: OVCAR-3 ovarian
[45] = test system: U251 CNS
[46] = test system: PC-3 prostate
[47] = test system: SNB-19 CNS
[48] = test system: A498 renal
[49] = test system: EKVX NSCLC
[50] = test system: OVCAR-5 ovarian

SMILES	TGI [2]	TGI [3]	TGI [4]	TGI [5]	TGI [6]	TGI [7]	TGI [9]	TGI [10]	TGI [11]	TGI [12]	TGI [13]	TGI [14]	TGI [15]	TGI [16]	TGI [17]	TGI [19]	TGI [20]	TGI [21]	TGI [23]	TGI [24]	other results
O=C1C=CC(=O)c2c(O)c(N3CCSCC3)c(Cl)c(O)c21	1820 nM	1470 nM	2160 nM	1690 nM	1770 nM	1790 nM	2020 nM	1940 nM	2000 nM	1030 nM	2210 nM	781 nM	1730 nM	1560 nM	1030 nM	1380 nM	1740 nM	689 nM	1810 nM	548 nM	TGI [1]: 362 nM; TGI [8]: 2880 nM; TGI [18]: 2290 nM; TGI [22]: 2180 nM; TGI [25]: 1480 nM; TGI [26]: 1050 nM; TGI [27]: 1240 nM; TGI [28]: 1480 nM; TGI [29]: 3820 nM; TGI [30]: 603 nM; TGI [31]: 1340 nM; TGI [32]: 4000 nM; TGI [33]: 1750 nM; TGI [34]: 1290 nM; TGI [35]: 1710 nM
COc1cc(OC)c(CSCC(NC(=O)OCC2c3ccccc3-c3ccccc32)C(=O)O)c(OC)c1 (stereo not drawn)	> 10000 nM	> 10000 nM	> 10000 nM	> 10000 nM	> 10000 nM	> 10000 nM	> 10000 nM	> 10000 nM	> 10000 nM	> 10000 nM	> 10000 nM	> 10000 nM	> 10000 nM	> 10000 nM	> 10000 nM	> 10000 nM	> 10000 nM	> 10000 nM	> 10000 nM	> 10000 nM	TGI [36]: > 10000 nM; TGI [37]: > 10000 nM; TGI [38]: > 10000 nM; TGI [39]: > 10000 nM; TGI [40]: > 10000 nM; TGI [41]: > 10000 nM; TGI [42]: > 10000 nM; TGI [43]: > 10000 nM; TGI [44]: > 10000 nM; TGI [25]: > 10000 nM; TGI [26]: > 10000 nM; TGI [28]: > 10000 nM; TGI [45]: > 10000 nM; TGI [46]: > 10000 nM; TGI [47]: > 10000 nM; TGI [48]: > 10000 nM; TGI [49]: > 10000 nM; TGI [50]: > 10000 nM
